The nature of data set [1]: Acute toxicity, rat, oral. Particulars: in vivo, read-out: LD 50 Ratte p.o. The source says:
(§1) Außer der antiallergischen Wirkung wurde die akute Toxizität an Gruppen von je 2 NMRI-Mäusen, Gewicht 20 bis 26 g, bei intraperitonealer Applikation und an je 2 Sprangue--Dawley-Ratten, Gewicht 120 bis 150 g, bei oraler Applikation ermittelt. Die Bestimmung der LD 50 erfolgte an Gruppen von je 10 NMRI-Mäusen, Gewicht 20 bis 26 g,nach intraperitonealer Applikation. Die Nachbeobachtungszeit betrug 14 Tage.

Data set [2] is described as follows: Acute toxicity, mouse, intraperitoneal. Particulars: in vivo, ip, read-out: LD 50 Maus i.p.
Excerpt: as §1

For data set [3], the system named is passiven cutanen Anaphylaxie (PCA). The data set is described as follows: Passive cutaneous anaphylaxis (PCA) in rats sensitised with ovalbumin antiserum. Type of data set: in vivo, Ratte. Particulars: for ED50: Rattus norvegicus, dose reducing diameter of dye spots by 50 % vs untreated controls, read-out: Hemmung der PCA Ratte ED 50 %; for ED50 / Hemmung der PCA Ratte R.W. (Relative Wirksamkeit) / mal wirksamer als die Vergleichsverbindung V1: oral administration; for inhibition in vivo at 1 mg/kg: ip, read-out: % Hemmung X ± SX; for inhibition in vivo at 1 mg/kg / % Hemmung X ± SX: intraperitoneal, 1 mg/kg test substance, mean ± SX; for Hemmung der PCA Ratte R.W. (Relative Wirksamkeit): relative to V1 = 1,00. Here is the method: Die antiallergische Wirkung wurde an Ratten getestet. Zur ' Prüfung wurde das Modell der passiven cutanen Anaphylaxie (PCA) verwendet.
Narkotisierte männliche Ratten (100 bis 140 g) werden durch intradermale Injektion (rasierte Rückenhaut) von 0,1 ml eines Ovalbumin-Antiserums sensibilisiert. Nach einer Sensibilisierungsperiode von ca. 48 Stunden erfolgt die Behandlung (intraperitoneale bzw. orale Applikation) mit unterschiedlichen Dosierungen (10 Tiere/Dosis) der Prüfsubstanzen. 15 bis 20 Minuten nach der Behandlung wird eine Antigen/Evansblau-Hischung (10 mg/kg Ovalbumin in 2 %iger Evansblau-Lösung) den Versuchstieren intravenös injiziert. 30 Minuten später werden die Tiere getötet, die Rückenhaut abgezogen und auf der inneren Oberfläche der Durchmesser der kreisförmigen Blaufärbung gemessen. Die Größe der Farbflecke unbehandelter Kontrolltiere ist standardisierbar. Antiallergisch wirksame Substanzen verkleinern dosisabhängig den Durchmesser der Farbflecke. Als ED 50 % wird die Dosis angegeben die im Vergleich zu medikamentös unbehandelten Kontrolltieren den Durchmesser der Farbflecke um 50 % herabsetzt.

A short description of data set [4]: Water solubility (remark in synthesis example). Format: physicochemical.
[5] abbreviates: Sprague-Dawley rats, oral, 14 days observation.
[6] abbreviates: NMRI mice, intraperitoneal, 14 days observation.

As for `CCOC(=O)C(=O)Nc1nc2c(s1)CCC2` [Beispiel 1, N-(Cyclopentano[1,2-d]thiazol-2-yl)-oxamidsäureethylester], the LD50 at 336 h in data set [1] (setting [5]) is > 2150 mg/kg. Further, the LD50 at 336 h in data set [2] (setting [6]) was ~464 mg/kg. Further, in data set [3], the ED50 stood at 1.59 mg/kg and the “Hemmung der PCA Ratte R.W. (Relative Wirksamkeit)” value is listed as 5,40. The inhibition in vivo at 1 mg/kg in data set [3] (PCA rat) is 25 ± 4.7%.

On to `CCOC(=O)C(=O)Nc1nc2c(s1)CCCC2` [Beispiel 2, N-(Cyclohexano[1,2-d]thiazol-2-yl)-oxamidsäureethylester], for which the LD50 at 336 h in data set [1] (po) was > 2150 mg/kg. Besides, the LD50 at 336 h in data set [2] is 422 mg/kg. Further, in data set [3] (PCA rat), the inhibition in vivo at 1 mg/kg amounted to 61 ± 8.8% and the “mal wirksamer als die Vergleichsverbindung V1” value is 11.9. The “Hemmung der PCA Ratte R.W. (Relative Wirksamkeit)” value in data set [3] was 11,90.

On to `CCOC(=O)C(=O)Nc1nc2c(s1)C(C)(C)CC(C)(C)C2` [Beispiel 4, N-(5,5,7,7-Tetramethylcyclohexano[1,2-d]thiazol-2-yl)-oxamidsäureethylester], for which, in data set [3] (PCA rat), the inhibition in vivo at 1 mg/kg turned out to be 15 ± 3.5%.

For the molecule `CCOC(=O)C(=O)Nc1nc2c(s1)CCCCC2` [Beispiel 5, N-(Cycloheptano[1,2-d]thiazol-2-yl)oxamidsäureethylester], in data set [3] (PCA rat), the inhibition in vivo at 1 mg/kg came out at 34 ± 6%.

For `O=C(O)C(=O)Nc1nc2c(s1)CCCC2` [Beispiel 6, N-(Cyclohexano[1,2-d]thiazol-2-yl)-oxamidsäure], in data set [1] (po), the LD50 at 336 h was > 2150 mg/kg. Further, the LD50 at 336 h in data set [2] is ~464 mg/kg. Further, in data set [3], the ED50 was 3.09 mg/kg and the “Hemmung der PCA Ratte R.W. (Relative Wirksamkeit)” value was 2,78. In data set [3] (PCA rat), the inhibition in vivo at 1 mg/kg came to 63 ± 6.6% and the “mal wirksamer als die Vergleichsverbindung V1” value was 2,8.

Take `CC(C)(C)OC(=O)C(=O)Nc1nc2c(s1)CCCC2` [Beispiel 7]: in data set [1] (setting [5]), the LD50 at 336 h was > 2150 mg/kg. Further, in data set [3], the ED50 was 2.35 mg/kg and the “Hemmung der PCA Ratte R.W. (Relative Wirksamkeit)” value was 3,65. Further, the inhibition in vivo at 1 mg/kg in data set [3] (PCA rat) was determined as 33 ± 7.9%.

For `O=C(O)c1cc(=O)c2c(OCC(O)COc3cccc4oc(C(=O)O)cc(=O)c34)cccc2o1` [Cromolyne, reference compound], the LD50 at 336 h in data set [1] (setting [5]) was > 2150 mg/kg. In data set [3] (PCA rat, up to 100 mg/kg p.o.), the “antiallergische Wirkung nach oraler Applikation” value was “unwirksam”. Further, the ED50 in data set [3] is 100 mg/kg. The inhibition in vivo at 1 mg/kg in data set [3] (PCA rat) was 21 ± 3.6%.

In the case of `CCOC(=O)C(=O)Nc1nc2ccccc2s1` [V1, N-Benzthiazol-2-yl-oxamidsäureethylester, reference compound], in data set [1] (setting [5]), the LD50 at 336 h was > 2150 mg/kg. Also, in data set [2] (setting [6]), the LD50 at 336 h was ~464 mg/kg. Besides, in data set [3], the ED50 worked out at 8.6 mg/kg and the “Hemmung der PCA Ratte R.W. (Relative Wirksamkeit)” value is given as 1,00. Further, in data set [3] (PCA rat), the inhibition in vivo at 1 mg/kg was found to be 26 ± 6.5%.

Take “N-(6-tert.-Butylcyclohexano[1,2-d]thiazol-2-yl)-oxamidsäureethylester [Beispiel 3]”: the “% Hemmung X ± SX” value in data set [3] (PCA rat) is 14 ± 4,1%.

For “N-(Cyclohexano[1,2-d]thiazol-2-yl)-oxamidsäure-ethanol- aminsalz [Beispiel 8]”, the Wasserlöslichkeit result in data set [4] is “gut wasserlöslichen”. Besides, in data set [3] (PCA rat), the “% Hemmung X ± SX” value is reported as 73 ± 7,5%.
